In patent publication US20240100023A1, “Compositions and Methods For Treating Spinal Cord Injuries” (priority 2020, published 2024):

Columns and labels:
[1] = tested on: evoked fEPSPs in rat hippocampus; test: Evoked fEPSPs in rat hippocampus in vivo (perforant path / dentate gyrus); parameters: species or system Rat (Long Evans); conditions: for Minimum Effective Dose, effect on evoked fEPSPs in rat hippocampus: Rat (Long Evans), IP; for Effect on evoked fEPSP / EPSP amplitude: anesthetized rat, intraperitoneal
Method: Further selection and characterization of ampakines to identify SCI recovery drugs useful within the invention involved electrophysiological studies (to measure “electrically evoked field excitatory postsynaptic potentials” (fEPSPs) for test compounds). CX717 and CX1739 were tested for their ability to facilitate synaptic responses in vivo in anesthetized animals following peripheral administration. Stimulating and recording electrodes were inserted into the perforant path and dentate gyrus of the hippocampus, respectively. Electrically evoked field excitatory postsynaptic responses (fEPSPs) were measured before administration of ampakines, and for approximately 2 hours following intraperitoneal administration of ampakines.
Electrically evoked field excitatory postsynaptic potentials (fEPSPs) were determined for the exemplary test ampakines CX717 and CX1739 as described. […] The response magnitude was related to the plasma levels achieved during the study. […] Both ampakines appear to produce a 25% maximum increase in fEPSP amplitude.

[2] = tested on: Monkey (Rhesus); test: Delayed match-to-sample test; type: in vivo, Rhesus macaque; conditions: for Minimum Effective Dose, delayed match-to-sample test: Monkey (Rhesus), PO
Method: Further elucidating the potent behavioral and cognitive effects of exemplary ampakines useful within the invention, additional studies using the well-known Monkey Delayed Match to Sample assay were conducted. CX1739 was evaluated using aged Rhesus macaque monkeys (18 to 33 years old), undertaking the delayed match-to-sample (DMTS) task. The stimuli included red, blue, or yellow rectangles. A trial was initiated by presentation of a sample rectangle composed of one of the three colors. The sample rectangle remained in view until the monkey touched within its borders to initiate a pre-programmed delay (retention) interval. Following the delay interval, two choice rectangles were presented, with one of the two choice colors being the color matching the stimulus and the other (incorrect) color as one of the two remaining colors. A correct (matching) choice was reinforced. Non-matching choices were neither reinforced nor punished. The duration for each delay interval was adjusted for each subject until three levels of group performance accuracy approximated zero delay (85-100% of trials answered correctly), short delay interval (75-84% correct), medium delay interval (65-74% correct), and long delay interval (55-64% correct). The inter-trial interval was 5 seconds and each session consisted of 96 trials.

[3] = tested on: Rat (Wistar); test: Novel object recognition memory; type: in vivo; conditions: for Minimum Effective Dose, novel object recognition memory: Rat (Wistar), IP
Method: Additional Novel Object Recognition behavioral model studies were conducted to further elucidate the SCI recovery activities of CX717 and CX1739. Rats were habituated to a test box for two 5-minute sessions on consecutive days. Each test session consisted of two phases: in the first phase (“sample period”), two identical objects (A1 and A2) were placed in the far corners of the box, and the rats were allowed to explore the objects. After a 24 hour delay, rats were re-introduced to the arena (“test period”) now containing a third identical copy of the familiar object (A3) and a new object (B), placed in the same locations as in the first phase, and the total time spent exploring each of the objects was determined over a 3-min duration. For CX717 drug treatment, rats were dosed 30 min prior to each sample session with either 0.1, 0.3, 1.0 mg/kg CX717 (p.o.); vehicle (0.5% methylcellulose, p.o.) or 0.9 mg/kg Aricept (E2020, i.p.). The exploration times for the full 3-min were calculated and expressed as the discrimination index, d1, defined as the absolute difference in time spent exploring the novel object minus the familiar object.
For CX1739 Male Wistar rats were assessed for cognitive ability in a test apparatus comprising an open-field arena placed in a sound-attenuated room under dimmed lighting. Rat exploration and activity were captured by a digital camera, and viewed on a monitor in an adjoining area. Following a 5-minute habituation period, each animal was placed in the test arena in the presence of two identical objects (plastic shapes) and the time spent actively exploring the objects during a 5-minute test period (T1) was recorded. After 24 hours, each rat was again placed in the test arena for 5 minutes (T2) in the presence of one familiar object and one novel object, and the time spent exploring both objects was recorded. The Recognition Index was calculated as the percentage of total exploration time spent exploring the novel object during the retention session (T2), which provides the primary measure of cognitive function in this assay.
The Novel object recognition (NOR) paradigm is a rodent model of recognition learning memory retrieval and takes advantage of the spontaneous behavior of rodents to investigate a novel object compared with a familiar object. NOR has been employed extensively to indicate cognition-enhancing properties of drug candidates, predictive of therapeutic efficacy of positively-assaying drugs for reducing SCI symptoms in humans.

[4] = tested on: Rat (SD); test: Radial arm maze - spatial memory; type: in vivo; conditions: for Minimum Effective Dose, radial arm maze - spatial memory: Rat (SD), IP
Method: Yet another animal model for evaluating ampakine drug activity employed herein is the well-known and widely accepted Radial Arm Maze model. CX717 was tested for its ability to improve the performance of aged rats in an eight-arm radial maze using a cross-over design study. This behavioral test uses a standard eight-arm radial maze wherein five arms were open and baited with food pellets for the first morning session. Each animal was allowed to consume the food rewards present in the open arms and was then returned to its home cage. Six hours later animals were returned to the maze, wherein all eight-arms were open, but only the three arms previously closed contained food rewards. Scoring was based on the number of correct choices before an incorrect choice (re-entering an arm that was visited during the morning acquisition session) was made and on the total number of incorrect choices made before all three of the still baited arms were visited. CX717 was tested at six doses (0.03, 0.1, 0.3, 1, 3 and 10 mg/kg in hydroxypropyl β-cyclodextran, i.p.), administered 30 min prior to the start of the morning acquisition session and no drug was given prior to the second trial six hours later.
For CX1739 male Sprague-Dawley rats were trained to perform the win shift assay on the radial arm maze for approximately 10 weeks prior to the study. On each day of training and testing, each rat completed one trial, split into a sample phase and a test phase. During the sample phase, the rat was placed on a 12-arm radial arm maze surrounded by visual cues. Food wells at the end of each arm were baited with sucrose pellets but access to three arms, selected randomly, was blocked with a clear plastic divider at the arm entrance. The rat was allowed 5 minutes to search the maze and collect the available food pellets before being removed from the maze. Fifteen minutes later the rat was returned to the maze for the test phase of the trial. During the test phase, the rat was allowed access to all 12 arms of the maze but only the arms that had been blocked previously were baited with sucrose pellets. […]

O=C(c1ccc2nonc2c1)N1CCOCC1 [CX717, 1-(benzofurazan-5-ylcarbonyl)morpholine]
Minimum Effective Dose, effect on evoked fEPSPs in rat hippocampus [1]: 5 mg/kg
Effect on evoked fEPSP / EPSP amplitude [1]: long-lasting increase
Minimum Effective Dose, delayed match-to-sample test [2]: 0.8 mg/kg
d1 scores (discrimination index) compared to vehicle ([3]; 0.3 mg/kg, 24 hour delay): significant increase
Minimum Effective Dose, novel object recognition memory [3]: 0.3 mg/kg
Minimum Effective Dose, radial arm maze - spatial memory [4]: 0.3 mg/kg

CN(C(=O)c1ccc2nonc2c1)C1CCOCC1 [CX1739, N-Methyl-N-tetrahydro-2H-pyran-4-yl-[2,1,3]-benzoxadiazole-5-carboxamide]
Minimum Effective Dose, effect on evoked fEPSPs in rat hippocampus [1]: 5 mg/kg
Effect on evoked fEPSP / EPSP amplitude [1]: substantial increase
Minimum Effective Dose, delayed match-to-sample test [2]: 0.3 mg/kg
Task accuracy with the Best Dose of each subject ([2]; sessions initiated 45 min after administration): statistically significant increase
Preference for novel object exploration compared with positive control ([3]; 0.03 mg/kg): comparable to that of 3 mg/kg galantamine
Minimum Effective Dose, novel object recognition memory [3]: 0.03 mg/kg
Minimum Effective Dose, radial arm maze - spatial memory [4]: 0.3 mg/kg
Dose producing the maximal effect / optimal dose in the maze assays ([4]; ip): 0.3 mg/kg
